The values that follow come from US10150760B2, “Compounds for use in preparing heterocyclic triazole agonists of the APJ receptor” (AMGEN INC., priority 2016, dated 2018).

For the assay, the target named is human APJ receptor (Homo sapiens (Human), UniProt P35414). Put plainly: [35S]GTPγS binding assay on membranes from CHO cells stably expressing human APJ receptor. In kind it is biochemical. The note with it: read-out: Activity hAPJ SPA EC50 IP. The essentials: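 Agonist-driven [35S]GTPγS (0.2 nM) binding was measured over 90 min at room temperature on human APJ-expressing CHO membranes with bead capture, in buffer containing 3 μM GDP, 200 mM NaCl and 5 mM MgCl2 (pH 7.5). Excess unlabelled GTPγS (100 μM) gave nonspecific signal; EC50 from non-linear fits.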
Sequence of human APJ receptor (P35414 whole entry): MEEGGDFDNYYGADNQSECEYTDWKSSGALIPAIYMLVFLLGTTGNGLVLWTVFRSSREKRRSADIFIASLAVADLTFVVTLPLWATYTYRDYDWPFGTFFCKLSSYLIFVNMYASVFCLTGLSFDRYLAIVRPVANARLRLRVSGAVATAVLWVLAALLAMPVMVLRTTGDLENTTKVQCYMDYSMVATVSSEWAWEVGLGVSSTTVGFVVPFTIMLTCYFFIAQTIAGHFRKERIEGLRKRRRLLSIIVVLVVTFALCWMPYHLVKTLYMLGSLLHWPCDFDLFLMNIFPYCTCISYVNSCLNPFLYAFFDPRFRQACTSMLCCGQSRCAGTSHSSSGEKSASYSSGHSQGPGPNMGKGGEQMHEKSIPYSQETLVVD
In general terms: Binding of GTPγS marks nucleotide exchange on a G protein.
What is called EC50 is the concentration needed to bring the measured effect to its halfway point. Consider `COc1cccc(OC)c1-n1c(NS(=O)(=O)CCc2ccc(F)cc2C#N)nnc1[C@@H]1CCCO1` (single isomer, unassigned) [Example 147.0, (S)-2-(2-Cyano-4-fluorophenyl)-N-(4-(2,6-dimethoxyphenyl)-5-(tetrahydrofuran-2-yl)-4H-1,2,4-triazol-3-yl)ethanesulfonamide or (R)-2-(2-cyano-4-fluorophenyl)-N-(4-(2,6-dimethoxyphenyl)-5-(tetrahydrofuran-2-yl)-4H-1,2,4-triazol-3-yl)ethanesulfonamide], for which the EC50 is 37 nM.
The figure for `COc1cccc(OC)c1-n1c(NS(=O)(=O)CCc2ccc(F)cc2C#N)nnc1[C@@H]1CCCO1` (single isomer, unassigned) [Example 148.0, (S)-2-(2-Cyano-4-fluorophenyl)-N-(4-(2,6-dimethoxyphenyl)-5-(tetrahydrofuran-2-yl)-4H-1,2,4-triazol-3-yl)ethanesulfonamide or (R)-2-(2-cyano-4-fluorophenyl)-N-(4-(2,6-dimethoxyphenyl)-5-(tetrahydrofuran-2-yl)-4H-1,2,4-triazol-3-yl)ethanesulfonamide] is 680 nM.
Consider `COc1cccc(OC)c1-n1c(NS(=O)(=O)[C@@H](C)[C@H](C)c2ncc(C#N)cn2)nnc1[C@H]1CCOC1` (single isomer, unassigned) [Example 173.0, (2S,3R)-3-(5-cyano-2-pyrimidin-yl)-N-(4-(2,6-dimethoxyphenyl)-5-((3R)-tetrahydro-3-furanyl)-4H-1,2,4-triazol-3-yl)-2-butanesulfonamide or (2S,3R)-3-(5-cyano-2-pyrimidinyl)-N-(4-(2,6-dimethoxyphenyl)-5-((3S)-tetrahydro-3-furanyl)-4H-1,2,4-triazol-3-yl)-2-butanesulfonamide], for which the EC50 turned out to be 130 nM.
Consider `COc1cccc(OC)c1-n1c(NS(=O)(=O)[C@@H](C)[C@H](C)c2ncc(C#N)cn2)nnc1[C@H]1CCOC1` (single isomer, unassigned) [Example 174.0, (2S,3R)-3-(5-cyano-2-pyrimidin-yl)-N-(4-(2,6-dimethoxyphenyl)-5-((3R)-tetrahydro-3-furanyl)-4H-1,2,4-triazol-3-yl)-2-butanesulfonamide or (2S,3R)-3-(5-cyano-2-pyrimidinyl)-N-(4-(2,6-dimethoxyphenyl)-5-((3S)-tetrahydro-3-furanyl)-4H-1,2,4-triazol-3-yl)-2-butanesulfonamide], for which the EC50 is 210 nM.
The figure for `COc1cnc([C@@H](C)[C@H](C)S(=O)(=O)Nc2nnc([C@@H]3COCCO3)n2-c2c(OC)cccc2OC)nc1` (single isomer, unassigned) [Example 175.0, (2S,3R)-N-(4-(2,6-dimethoxyphenyl)-5-((2R)-1,4-dioxan-2-yl)-4H-1,2,4-triazol-3-yl)-3-(5-methoxy-2-pyrimidinyl)-2-butanesulfonamide or (2S,3R)-N-(4-(2,6-dimethoxyphenyl)-5-((2S)-1,4-dioxan-2-yl)-4H-1,2,4-triazol-3-yl)-3-(5-methoxy-2-pyrimidinyl)-2-butanesulfonamide] is 3.5 nM.
With `COc1cnc([C@@H](C)[C@H](C)S(=O)(=O)Nc2nnc([C@@H]3COCCO3)n2-c2c(OC)cccc2OC)nc1` (single isomer, unassigned) [Example 176.0, (2S,3R)-N-(4-(2,6-dimethoxyphenyl)-5-((2R)-1,4-dioxan-2-yl)-4H-1,2,4-triazol-3-yl)-3-(5-methoxy-2-pyrimidinyl)-2-butanesulfonamide or (2S,3R)-N-(4-(2,6-dimethoxyphenyl)-5-((2S)-1,4-dioxan-2-yl)-4H-1,2,4-triazol-3-yl)-3-(5-methoxy-2-pyrimidinyl)-2-butanesulfonamide] the figure was 34 nM; with `COc1cnc([C@@H](C)[C@H](C)S(=O)(=O)Nc2nnc([C@@H]3COCCO3)n2-c2c(OC)ncnc2OC)nc1` (single isomer, unassigned) [Example 177.0, (2S,3R)-N-(4,-(4,6-dimethoxy-5-pyrimidinyl)-5-((2R)-1,4-dioxan-2-yl)-4H-1,2,4-triazol-3-yl)-3-(5-methoxy-2-pyrimidinyl)-2-butanesulfonamide or (2S,3R)-N-(4-(4,6-dimethoxy-5-pyrimidinyl)-5-((2S)-1,4-dioxan-2-yl)-4H-1,2,4-triazol-3-yl)-3-(5-methoxy-2-pyrimidinyl)-2-butanesulfonamide], 95 nM.
The figure for `COc1cnc([C@@H](C)[C@H](C)S(=O)(=O)Nc2nnc([C@@H]3COCCO3)n2-c2c(OC)ncnc2OC)nc1` (single isomer, unassigned) [Example 178.0, (2S,3R)-N-(4-(4,6-dimethoxy-5-pyrimidinyl)-5-((2R)-1,4-dioxan-2-yl)-4H-1,2,4-triazol-3-yl)-3-(5-methoxy-2-pyrimidinyl)-2-butanesulfonamide or (2S,3R)-N-(4-(4,6-dimethoxy-5-pyrimidinyl)-5-((2S)-1,4-dioxan-2-yl)-4H-1,2,4-triazol-3-yl)-3-(5-methoxy-2-pyrimidinyl)-2-butanesulfonamide] is 290 nM.
On to `COc1ncnc(OC)c1-n1c(NS(=O)(=O)[C@@H](C)[C@H](C)c2ncc(Cl)cn2)nnc1[C@@H]1CCCCO1` (single isomer, unassigned) [Example 191.0, (2S,3R)-3-(5-chloropyrimidin-2-yl)-N-(4-(4,6-dimethoxypyrimidin-5-yl)-5-((S)-tetrahydro-2H-pyran-2-yl)-4H-1,2,4-triazol-3-yl)butane-2-sulfonamide or (2S,3R)-3-(5-chloropyrimidin-2-yl)-N-(4-(4,6-dimethoxypyrimidin-5-yl)-5-((R)-tetrahydro-2H-pyran-2-yl)-4H-1,2,4-triazol-3-yl)butane-2-sulofnamide], for which the EC50 was found to be 4.1 nM.
With `COc1ncnc(OC)c1-n1c(NS(=O)(=O)[C@@H](C)[C@H](C)c2ncc(Cl)cn2)nnc1[C@@H]1CCCCO1` (single isomer, unassigned) [Example 192.0, (2S,3R)-3-(5-chloropyrimidin-2-yl)-N-(4-(4,6-dimethoxypyrimidin-5-yl)-5-((S)-tetrahydro-2H-pyran-2-yl)-4H-1,2,4-triazol-3-yl)butane-2-sulfonamide or (2S,3R)-3-(5-chloropyrimidin-2-yl)-N-(4-(4,6-dimethoxypyrimidin-5-yl)-5-((R)-tetrahydro-2H-pyran-2-yl)-4H-1,2,4-triazol-3-yl)butane-2-sulfonamide] the figure was 1 nM; with `COc1ncnc(OC)c1-n1c(NS(=O)(=O)[C@@H](C)[C@H](C)c2ncc(Cl)cn2)nnc1[C@@H]1COCCO1` (single isomer, unassigned) [Example 196.0, (2S,3R)-3-(5-chloropyrimidin-2-yl)-N-(4-(4,6-dimethoxypyrimidin-5-yl)-5-((R)-1,4-dioxan-2-yl)-4H-1,2,4-triazol-3-yl)butane-2-sulfonamide or (2S,3R)-3-(5-chloropyrimidin-2-yl)-N-(4-(4,6-dimethoxypyrimidin-5-yl)-5-((S)-1,4-dioxan-2-yl)-4H-1,2,4-triazol-3-yl)butane-2-sulfonamide], 130 nM.
For `COc1cccc(OC)c1-n1c(NS(=O)(=O)[C@@H](C)[C@H](C)c2ncc(C)cn2)nnc1[C@H]1CN(S(C)(=O)=O)CCO1` (single isomer, unassigned) [Example 230.0], the EC50 was determined as 450 nM.
In the case of `COc1cccc(OC)c1-n1c(NS(=O)(=O)[C@@H](C)[C@H](C)c2ncc(C)cn2)nnc1[C@H]1CN(S(C)(=O)=O)CCO1` (single isomer, unassigned) [Example 231.0], the EC50 came out at 880 nM.
With `COc1ncnc(OC)c1-n1c(NS(=O)(=O)[C@@H](C)[C@H](OC)c2ncc(C)cn2)nnc1[C@@H]1Cc2ccccc2O1` (single isomer, unassigned) [Example 232.0, (1R,2S)-N-(5-((S)-2,3-dihydrobenzofuran-2-yl)-4-(4,6-dimethoxypyrimidin-5-yl)-4H-1,2,4-triazol-3-yl)-1-methoxy-1-(5-methylpyrimidin-2-yl)propane-2-sulfonamide or (1R,2S)-N-(5-((R)-2,3-dihydrobenzofuran-2-yl)-4-(4,6-dimethoxypyrimidin-5-yl)-4H-1,2,4-triazol-3-yl)-1-methoxy-1-(5-methylpyrimidin-2-yl)propane-2-sulfonamide] the figure was 220 nM.
The figure for `C[C@H](c1ncc(Cl)cn1)[C@H](C)S(=O)(=O)Nc1nnc([C@@H]2COCCO2)n1C1CCOCC1` (single isomer, unassigned) [Example 245.0, (2S,3R)-3-(5-chloro-2-pyrimidinyl)-N-(5-((2R)-1,4-dioxan-2-yl)-4-(tetrahydro-2H-pyran-4-yl)-4H-1,2,4-triazol-3-yl)-2-butanesulfonamide or (2S,3R)-3-(5-chloro-2-pyrimidinyl)-N-(5-((2S)-1,4-dioxan-2-yl)-4-(tetrahydro-2H-pyran-4-yl)-4H-1,2,4-triazol-3-yl)-2-butanesulfonamide] is 620 nM; for `C[C@H](c1ncc(Cl)cn1)[C@H](C)S(=O)(=O)Nc1nnc([C@@H]2COCCO2)n1C1CCOCC1` (single isomer, unassigned) [Example 246.0, (2S,3R)-3-(5-chloro-2-pyrimidinyl)-N-(5-((2R)-1,4-dioxan-2-yl)-4-(tetrahydro-2H-pyran-4-yl)-4H-1,2,4-triazol-3-yl)-2-butanesulfonamide or (2S,3R)-3-(5-chloro-2-pyrimidinyl)-N-(5-((2S)-1,4-dioxan-2-yl)-4-(tetrahydro-2H-pyran-4-yl)-4H-1,2,4-triazol-3-yl)-2-butanesulfonamide] it is over 4200 nM; for `CO[C@H](c1ncc(Cl)cn1)[C@H](C)S(=O)(=O)Nc1nnc([C@@H]2COCCO2)n1C1CCOCC1` (single isomer, unassigned) [Example 247.0, (1R,2S)-1-(5-chloro-2-pyrimidinyl)-N-(5-((2R)-1,4-dioxan-2-yl)-4-(tetrahydro-2H-pyran-4-yl)-4H-1,2,4-triazol-3-yl)-1-methoxy-2-propanesulfonamide or (1R,2S)-1-(5-chloro-2-pyrimidinyl)-N-(5-((2S)-1,4-dioxan-2-yl)-4-(tetrahydro-2H-pyran-4-yl)-4H-1,2,4-triazol-3-yl)-1-methoxy-2-propanesulfonamide] it is 240 nM.
